Common to all, as to assay type: cell-based
The target of one experiment is T1, BRD4 (Homo sapiens, UniProt O60885).
T1 construct: HiBiT-BRD4 HEK293 CRISPR CPM (Promega CS302312); host or cells: HEK293, CRISPR-edited (HiBiT at the BRD4 locus)
Kind of experiment: BRD4 degradation, HiBiT-BRD4 HEK293 CRISPR CPM cells, NanoGlo Lytic Endpoint assay (Assay Protocol 1). The conditions noted are these: Table 3, assay 1; for Dmax: HEK293, 1 μM compound at 5 h of treatment; for DC50: 5 h of treatment. On the technique in general: The HiBiT peptide binds its large partner to form an active luciferase.

The target in experiment [1] is T2, BRD9 (Homo sapiens, UniProt Q9H8M2).
T2 sequence (Q9H8M2 1-597): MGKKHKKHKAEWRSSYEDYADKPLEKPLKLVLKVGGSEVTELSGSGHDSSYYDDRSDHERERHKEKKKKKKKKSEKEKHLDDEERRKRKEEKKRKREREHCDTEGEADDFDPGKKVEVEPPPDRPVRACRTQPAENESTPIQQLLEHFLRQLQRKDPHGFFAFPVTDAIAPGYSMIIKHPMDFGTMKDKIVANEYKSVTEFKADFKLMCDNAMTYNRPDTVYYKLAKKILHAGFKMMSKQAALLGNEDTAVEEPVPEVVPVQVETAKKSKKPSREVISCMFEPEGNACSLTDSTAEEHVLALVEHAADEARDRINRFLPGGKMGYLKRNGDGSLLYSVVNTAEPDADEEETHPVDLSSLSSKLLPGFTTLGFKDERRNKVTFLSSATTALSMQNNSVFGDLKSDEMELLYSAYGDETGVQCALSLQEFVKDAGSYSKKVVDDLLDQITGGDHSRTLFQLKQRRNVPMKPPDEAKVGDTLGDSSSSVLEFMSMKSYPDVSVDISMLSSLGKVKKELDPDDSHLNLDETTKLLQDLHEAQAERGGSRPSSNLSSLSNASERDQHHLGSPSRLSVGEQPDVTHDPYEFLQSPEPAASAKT
Put plainly: BRD9 degradation, HiBiT-BRD9 KI HEK293 (LgBiT) cells, NanoGlo Lytic Endpoint assay (Assay Protocol 1). To be noted: Table 3; assay 1; 5 h of treatment.

A further experiment addresses T3, BRD7 (Homo sapiens, UniProt Q9NPI1).
T3 construct: HiBiT-BRD7 KI HEK293 (LgBiT) Cells (Promega CS3023410); host or cells: HEK293 (LgBiT), HiBiT knock-in at the BRD7 locus
T3 sequence (Q9NPI1 1-651): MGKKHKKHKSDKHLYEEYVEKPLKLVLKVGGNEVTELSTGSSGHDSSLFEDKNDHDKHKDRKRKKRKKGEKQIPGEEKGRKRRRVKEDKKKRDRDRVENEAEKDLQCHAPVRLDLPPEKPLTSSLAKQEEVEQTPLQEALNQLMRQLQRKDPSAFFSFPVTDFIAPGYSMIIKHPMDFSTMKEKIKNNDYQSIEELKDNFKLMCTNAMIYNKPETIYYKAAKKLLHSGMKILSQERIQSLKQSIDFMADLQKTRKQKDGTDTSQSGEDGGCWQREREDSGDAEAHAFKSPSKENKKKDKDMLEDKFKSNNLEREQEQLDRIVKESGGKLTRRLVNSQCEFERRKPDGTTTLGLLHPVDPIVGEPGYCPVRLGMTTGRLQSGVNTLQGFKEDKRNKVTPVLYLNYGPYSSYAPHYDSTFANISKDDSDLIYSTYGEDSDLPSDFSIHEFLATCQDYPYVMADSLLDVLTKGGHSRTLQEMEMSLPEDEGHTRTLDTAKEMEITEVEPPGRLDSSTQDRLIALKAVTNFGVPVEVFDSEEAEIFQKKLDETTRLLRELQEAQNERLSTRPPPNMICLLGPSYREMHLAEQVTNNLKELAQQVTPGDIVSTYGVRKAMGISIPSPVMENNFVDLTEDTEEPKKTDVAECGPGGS
Kind of experiment: BRD7 degradation, HiBiT-BRD7 KI HEK293 (LgBiT) cells, NanoGlo Lytic Endpoint assay (Assay Protocol 1). To be noted: HEK293; Table 3; assay 1; 1 μM compound at 5 h of treatment. As to the method:
HiBiT-BRD9 KI HEK293 (LgBiT) Cells (Promega CS3023412) were seeded at 8000 cells per well (38 μL) in sterile white bottom 384 well plates (Invitrogen 164610 or Greiner 781080) and incubated overnight at 37° C. with 5% CO2. The next day, compounds were prepared at 1000× final concentration in DMSO and diluted 1:100 in media (DMEM PAN Biotech P04-03550+10% FBS ATCC 302025). […] The lytic buffer was equilibrated to room temperature for 10-15 min before lytic reagent was prepared by adding substrate (1:50) and LgBit protein (1:100) in lytic buffer. 40 μL lytic reagent mix was added to each well of the cel plate and plates were centrifuged briefly at ˜50g. Plates were incubated with shaking (350 RPM) for 12-24 min before reading using the LUM plus module of a BMG Pherastar FSX. Data was analysed using Dotmatics software and % BRD9 remaining was calculated by normalisation to average data from high and low control wells (DMSO treated cels and no cells respectively).
BRD7 degradation was determined in line with the procedure as outlined above for BRD9, with the exception that HiBiT-BRD7 KI HEK293 (LgBiT) Cells (Promega CS3023410) were seeded at 8000 cells per well (CPW) (36 uL) in sterile white bottom 384 well plates (Invitrogen 164610 or Greiner 781080) and incubated overnight at 37° C. with 5% CO2.

Experiment [2] has as its target T2, BRD9. Kind of experiment: BRD9 degradation, HiBiT-BRD9 KI HEK293 (LgBiT) cells, NanoGlo Lytic Endpoint assay (Assay Protocol 1). The conditions noted are these: for Dmax at 1 µM: HEK293; for DC50: 6 h of treatment, read-out: Assay 1 DC50. The essentials: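 HiBiT-tagged BRD9 knock-in HEK293 (LgBiT) cells exposed to compounds for 6 h at 37 °C, 5% CO2. Residual BRD9 measured by HiBiT lytic luminescence. % BRD9 remaining normalised to DMSO-treated cells (high) and no-cell wells (low).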

[3] abbreviates: Table 2, BRD9 degradation, Assay Protocol 1, 1 μM compound at 6 h of treatment, read-out: Assay 1 Dmax.
The mark [4] stands for this setting: Table 3, assay 1, 1 μM compound at 5 h of treatment, read-out: BRD9 Dmax (%).
[5] abbreviates: Table 2, BRD9 degradation, Assay Protocol 1.

Consider three compounds from US20260092061A1, “COMPOUNDS FOR TARGETED PROTEIN DEGRADATION” (Amphista Therapeutics Limited, priority 2022, published 2026).

As usually defined, the Dmax is the greatest extent of degradation seen. By DC50 is commonly meant the concentration at which degradation of the target reaches its halfway point.

Each structure is given as a SMILES string. Like-named read-outs stand apart in the source and are kept apart here.

`COc1cc(-c2cn(C)c(=O)c(C)c2C)cc(OC)c1CN1CCN(Cc2cccc3c2CCN(C(=O)/C(C#N)=C/c2ncc(C)s2)C3C)CC1` (mixture of isomers) [Compound A29] returned a Dmax on BRD4 below 25%. The 50% degradation concentration (DC50) on BRD9 [1] and at BRD9 [2] (setting [5]) was 1.25 to 10 nM in each case. The figures for the Dmax at 1 µM at BRD7, at BRD9 [2] (setting [3]) and on BRD9 [2] (setting [4]) were 25 to 40%, 40 to 70% and 40 to 70%, respectively.

On to `COc1cc(-c2cc(C)c(=O)n(C)c2)cc(OC)c1CN1CCN(Cc2cccc3c2CCN(C(=O)/C(C#N)=C/c2cccc(Br)n2)C3C)CC1` (mixture of isomers) [Compound A60], for which the Dmax on BRD4 lay in the range of 40 to 70%. For the same compound, the values for the 50% degradation concentration (DC50) on BRD4, at BRD9 [1] and at BRD9 [2] (setting [5]) were 25 to 1000 nM, below 1.25 nM and below 1.25 nM, respectively. The figures for the Dmax at 1 µM at BRD7, on BRD9 [2] (setting [3]) and on BRD9 [2] (setting [4]) were below 25%, 40 to 70% and 40 to 70%, respectively.

As to `COc1cc(-c2cc(C)c(=O)n(C)c2)cc(OC)c1CN1CCN(Cc2cccc3c2CCN(C(=O)/C(C#N)=C/C2(F)CC2)C3C)CC1` (mixture of isomers) [Compound A61, (E/Z)-2-(5-((4-(4-(1,5-dimethyl-6-oxo-1,6-dihydropyridin-3-yl)-2,6-dimethoxybenzyl)piperazin-1-yl)methyl)-1-methyl-1,2,3,4-tetrahydroisoquinoline-2-carbonyl)-3-(1-fluorocyclopropyl) acrylonitrile], the greatest degradation seen (Dmax) on BRD4 lay within 40 to 70%. Besides, the DC50 on BRD4 is 25 to 1000 nM; at BRD9 [1] it was below 1.25 nM; at BRD9 [2] (setting [5]) it was below 1.25 nM. In addition, the results for the maximal degradation (Dmax) at 1 µM at BRD7, at BRD9 [2] (setting [3]) and at BRD9 [2] (setting [4]) were below 25%, above 75% and above 75%, respectively.
